Results published in publication PMC12668310, “High‐Throughput Synthesis and Screening of a Cyanimide Library Identifies Selective Inhibitors of ISG15‐Specific Protease mUSP18” (Angewandte Chemie (International Ed. in English), 2025).

Tests used:
OTUD1 = molecular target: T1, OTUD1 (Homo sapiens, UniProt Q5VV17); assay: High-throughput screening, Ub-RhoMP, single dose 1.25 µM; assay type: biochemical; conditions: crude in-plate synthesized compound, 1.25 µM assuming full conversion
T1 sequence (Q5VV17 287-481): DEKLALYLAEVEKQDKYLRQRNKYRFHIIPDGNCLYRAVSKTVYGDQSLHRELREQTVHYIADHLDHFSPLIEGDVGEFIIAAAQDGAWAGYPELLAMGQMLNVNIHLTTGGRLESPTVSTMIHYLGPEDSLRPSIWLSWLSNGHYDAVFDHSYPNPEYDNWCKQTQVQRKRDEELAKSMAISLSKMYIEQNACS
Description: Since the in‐plate synthesis was conducted in 1536‐well Echo plates, the compounds could readily be transferred from these plates into 1536‐well assay plates using acoustic liquid dispensing (Figure 2a) and subjected to HTS. We screened the whole 7536 compound library against a panel of twelve enzymes, including three DUBs from the UCH family, two DUBs from the OTU family, five DUBs from the USP family, plus ISG15 protease USP18, and SUMO protease SENP1. Each compound was tested at a single dose of 1.25 µM, assuming full conversion (10 mM in DMSO of the formed products) during the in‐plate synthesis, using the fluorogenic assay described above. […] The compounds are sorted by the amine building blocks (BB1‐16), and within each BB, sorted by carboxylic acid (CA1‐471), thereby providing a comprehensive and systematic overview of the overall inhibition by each BB and CA combination. Some interesting patterns can be obtained from this map. […] Indeed, BB10 is the privileged scaffold for UCHL1 as it originates from UCHL1 inhibitor 5 (Figure 1). […] On the other hand, OTUD1 and USP32 show a much higher hit rate, and this is even more pronounced for USP30 and ISG15 protease mUSP18, each showing many active compounds distributed over several BB's.
Purified recombinant enzymes used in this study
High-throughput screening
The screens were performed at room temperature in “flat bottom, non-treated, black […]
µM. The compounds (10 nL each) were transferred from the 1 mM daughter plates to the […]
Four wells containing DMSO
(10 nL) and four wells containing NEM (10 mM final concentration) were used in each plate […]
solution (1.33x final concentration) was added to each well, followed by incubation for 30 min.
Next, 2 µL of a substrate solution (4x final concentration) was added to each well (Ub-RhoMP[2]
After 1h or 2h incubation the
The percentage inhibition was calculated for each well using the […]
Where FIx is the fluorescence intensity of each well, FIpos is the average fluorescence intensity of the positive (NEM) control wells, and FIneg is the average fluorescence intensity of the negative (DMSO) control wells.

[1] = test system: cellular ISGylation in EL4 cells; assay: ISGylation accumulation in mouse IFN-β-stimulated EL4 cells (anti-mISG15 western blot); assay type: cell-based; conditions: 4 h treatment; for effect on cellular ISGylation: anti-mISG15 blot
Description: Figure 6 Inhibition of murine USP18 activity in living cells. a) Gel‐based ABPP potency assessment using a Rho‐mISG15ct‐PA probe in HEK293T cells overexpressing Flag‐mUSP18. At 24 h following transfection, cells were incubated with DMSO or increasing concentrations of indicated inhibitors for 4 h, lysed, and treated with Rho‐mISG15ct‐PA probe. Top panel: fluorescence scan. Middle panel: anti‐Flag western blot. Bottom panel: anti‐GAPDH western blot confirms equal loading. b) Accumulation of ISGylation in mouse IFN‐β‐stimulated EL4 cells. At 24 h following mouse IFN‐β treatment, cells were incubated with DMSO or increasing concentrations of indicated inhibitors for 4 h, lysed, and treated with Rho‐mISG15ct‐PA probe. Top panel: anti‐mISG15 western blot. Middle panel: fluorescence scan. Bottom panel: anti‐β‐actin western blot confirms equal loading.
Ultimately, we were interested in whether USP18 inhibitor treatment could result in a relevant phenotype in cells. USP18 is the major deISGylase to remove ISG15 from target proteins, and genetic inactivation of USP18 isopeptidase activity leads to enhanced ISGylation in vivo and in cells.^[ [26] ^] We therefore examined whether the USP18 inhibitors enhance cellular ISGylation. Accordingly, EL4 cells were stimulated with IFN‐β to induce the ISG15 machinery, prior to treatment with the inhibitors. After cell lysis and SDS‐PAGE, ISGylated proteins were stained by immunoblotting with an ISG15 antibody (Figure 6b, top panel). […] To confirm inhibition of endogenous USP18 in these experiments, samples were post‐lysis treated with Rho‐mISG15ct‐PA probe.
Generation of ISGylation and in-cell inhibition assay
Mouse EL4 cells were stimulated with 300 U/mL mouse IFN-β. At 24 hours following stimulation, cells were incubated with indicated compounds at the indicated final concentrations at 37 °C for 4 hours, then washed twice with PBS and harvested for further […]
Activity-based probe labelling
The in-cell inhibition of DUBs and mUSP18 was assessed using activity-based probe labelling assays. In brief, cell pellets were resuspended in HR buffer (50 mM Tris-HCl, 5 mM MgCl 2, 250 mM sucrose, 2 mM TCEP and a Protease inhibitor tablet (Roche), pH 7.4), and lysed by sonication (Bioruptor, Diagenode, high intensity for 10 minutes with an ON/OFF cycle of 30 seconds) at 4°C. 40 μg clarified cell lysate was incubated with Rhodamine-mISG15ct-propargylamide probe[1] (final concentration 1 μM) or Rhodamine-Ubiquitin-propargylamide probe[13] (final concentration 1 μM) at 37 °C for 30 min. Reactions were stopped by the addition of LDS (lithium dodecyl sulfate) sample buffer (Invitrogen Life Technologies, Carlsbad, CA, USA) containing 2.5% β-mercaptoethanol, followed by boiling for 7 minutes.
SDS-PAGE, in-gel fluorescence scanning, and immunoblotting
Samples were resolved on precast Bis-Tris NuPAGE Gels (Invitrogen, including 4-12%, and 10% for different samples) using MOPS buffer (Invitrogen Life Technologies, Carlsbad, CA, USA). For fluorescence scan, labeled enzymes were visualized by in-gel fluorescence using a Typhoon FLA 9500 imaging system (GE Healthcare Life Sciences) (Rhodamine channel for probe, Cy5 channel for protein marker).
For immunoblotting, proteins were transferred to a nitrocellulose membrane (Protan BA85, 0.45 μm, GE Healthcare) at 300 mA for 3 hours. […]

Row | SMILES | %inhibition OTUD1 (OTUD1) [%] | concentration of maximum accumulation of ISGylation [1] [µM] | effect on cellular ISGylation [1]
1 | N#CN1CC[C@@H](NC(=O)C(Cc2c[nH]cn2)NS(=O)(=O)c2ccc(Cl)cc2)C1 (stereo partly drawn) [BB01CA91] | -3.9 |  | 
2 | N#CN1CC[C@@H](NC(=O)c2nc(N3CCCC3)ncc2Cl)C1 [BB01CA90] | 7.7 |  | 
3 | Cc1cc(C(=O)N[C@H]2C[C@@H]3CN(C#N)C[C@@H]3C2)ccc1C(C)C [BB07CA902] |  | 10 | significantly elevated cellular ISGylation
4 | Cc1cc(C(=O)N[C@H]2C[C@@H]3CN(C#N)C[C@@H]3C2)ccc1Br [BB07CA28] |  | 10 | significantly elevated cellular ISGylation

Continued, in another order:

Row | %inhibition OTUD1 (OTUD1) [%] | SMILES | concentration of maximum accumulation of ISGylation [1] [µM] | effect on cellular ISGylation [1]
5 | -13.5 | N#CN1CC[C@@H](NC(=O)Cc2csc(-c3cnccn3)n2)C1 [BB01CA92] |  | 
6 | -11.1 | N#CN1CC[C@@H](NC(=O)c2ncoc2-c2cccs2)C1 [BB01CA94] |  | 
7 | 1.5 | N#CN1CC[C@@H](NC(=O)CCN(Cc2ccccc2)S(=O)(=O)c2c(Cl)cccc2Cl)C1 [BB01CA93] |  | 
